Results: patent EP4667483A1, “HUMAN TRANSFERRIN RECEPTOR-BINDING PEPTIDE” (JCR Pharmaceuticals Co., Ltd., priority 2023, dated 2024)
Bridge positions count the residues as written; N and C are the ends. Square brackets hold non-standard residues; d marks the D form. Peptide text beside a SMILES is read from it. * marks the point of attachment. Ala(imidazo(1,2-a)pyr3yl) = N[C@@H](Cc1cnc2ccccn12)C(=O)O; Trp(1-CH2COOH) = N[C@@H](Cc1cn(CC(=O)O)c2ccccc12)C(=O)O; NMePhe(4-COOH) = CN[C@@H](Cc1ccc(C(=O)O)cc1)C(=O)O; Nle(6-morpholino) = N[C@@H](CCCCN1CCOCC1)C(=O)O; Phe(3-COOH) = N[C@@H](Cc1cccc(C(=O)O)c1)C(=O)O; NMePhe(3-Cl) = CN[C@@H](Cc1cccc(Cl)c1)C(=O)O; 3Pal(6-OMe) = COc1ccc(C[C@H](N)C(=O)O)cn1; 3Pal(6-NH2) = Nc1ccc(C[C@H](N)C(=O)O)cn1; Tyr(3-Me) = Cc1cc(C[C@H](N)C(=O)O)ccc1O; NMeY = CN[C@@H](Cc1ccc(O)cc1)C(=O)O; Nva(3-Et) = CCC(CC)[C@H](N)C(=O)O; NH(CH2CH2O)4Me = COCCOCCOCCOCCN*; 4Pal = N[C@@H](Cc1ccncc1)C(=O)O; PEG4 = NCCOCCOCCOCCOCCC(=O)O; Carboxymethyl = O=C(O)C*

Experiments:
Assay type in all cases: binding
[1] = biological target: T1, human transferrin receptor (hTfR) (Homo sapiens, UniProt P02786); assay: SPR measurement under pH 6.0 conditions (Biacore T200, NTA chip, immobilized hTfR); settings: SPR, pH 6.0; read-out: hTfR SPR pH6.0 KD
[2] = biological target: T1, human transferrin receptor (hTfR); assay: Evaluation of pH dependence (ratio of SPR koff or KD at pH 6.0 to pH 7.4); settings: ratio of koff at pH 6.0 to pH 7.4
Protocol: The ratio of the calculated koff or KD values under pH 6.0 conditions to those under pH 7.4 conditions was calculated to check pH dependency.

[3] = biological target: T1, human transferrin receptor (hTfR); assay: SPR measurement under pH 7.4 conditions (Biacore T200, CM3 chip, hTfR captured by His Tag antibody); settings: SPR, pH 7.4; read-out: hTfR SPR pH7.4 KD

T1 sequence (P02786 whole entry): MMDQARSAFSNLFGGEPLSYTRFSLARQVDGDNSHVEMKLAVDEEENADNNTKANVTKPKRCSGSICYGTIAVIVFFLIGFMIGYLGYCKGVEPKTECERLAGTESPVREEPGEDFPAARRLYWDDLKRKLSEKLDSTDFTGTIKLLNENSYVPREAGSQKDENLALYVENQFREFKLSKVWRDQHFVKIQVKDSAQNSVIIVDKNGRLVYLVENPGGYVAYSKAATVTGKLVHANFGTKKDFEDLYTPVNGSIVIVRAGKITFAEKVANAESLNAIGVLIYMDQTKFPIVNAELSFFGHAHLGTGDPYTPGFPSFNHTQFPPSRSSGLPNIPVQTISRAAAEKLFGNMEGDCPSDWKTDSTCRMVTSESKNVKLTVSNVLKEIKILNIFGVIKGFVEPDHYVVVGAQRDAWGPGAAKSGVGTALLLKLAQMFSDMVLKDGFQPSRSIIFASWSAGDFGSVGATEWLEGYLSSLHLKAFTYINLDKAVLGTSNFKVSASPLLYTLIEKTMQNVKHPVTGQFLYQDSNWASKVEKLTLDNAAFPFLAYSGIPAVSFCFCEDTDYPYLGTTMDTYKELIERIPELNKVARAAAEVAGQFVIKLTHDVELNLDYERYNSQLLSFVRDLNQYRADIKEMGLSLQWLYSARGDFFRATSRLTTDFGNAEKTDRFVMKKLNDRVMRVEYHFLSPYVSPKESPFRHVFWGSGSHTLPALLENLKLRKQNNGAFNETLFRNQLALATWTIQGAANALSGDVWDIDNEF

Structure (SMILES) | Kd [1] [nM] | dependency koff pH6.0/7.4 [2] | Kd [3] [nM]
CCC(CC)[C@@H]1NC(=O)[C@H](Cc2ccc(OCC(=O)O)cc2)NC(=O)[C@H](Cc2ccc(O)c(C)c2)NC(=O)[C@H](CC(N)=O)NC(=O)[C@H](Cc2cn(CC(=O)O)c3ccccc23)NC(=O)[C@H](C(C)C)NC(=O)[C@H](Cc2cccc(Cl)c2)N(C)C(=O)[C@H](C(C)C)NC(=O)[C@H](C)NC(=O)CSC[C@@H](C(=O)NCCOCCOCCOCCOCCC(N)=O)NC(=O)[C@H](Cc2ccc(O)cc2)N(C)C(=O)[C@H](Cc2cccc(C(=O)O)c2)NC(=O)[C@H](CCCNC(=N)N)NC(=O)[C@H](CCC(N)=O)NC(=O)[C@H]([C@@H](C)CC)NC1=O [compound 89] ({CH2CO}-AV[NMePhe(3-Cl)]V[Trp(1-CH2COOH)]N[Tyr(3-Me)]Y(Carboxymethyl)[Nva(3-Et)]IQR[Phe(3-COOH)][NMeY]C[PEG4]-NH2; thioether N-15) |  | 8.08 | 
CCC(CC)[C@@H]1NC(=O)[C@H](Cc2ccc(OC)nc2)NC(=O)[C@H](Cc2ccc(O)cc2)NC(=O)[C@H](CC(N)=O)NC(=O)[C@H](Cc2cn(CC(=O)O)c3ccccc23)NC(=O)[C@H](C(C)C)NC(=O)[C@H](Cc2cccc(Cl)c2)N(C)C(=O)[C@H](C(C)C)NC(=O)[C@H](C)NC(=O)CSC[C@@H](C(=O)NCCOCCOCCOCCOCCC(N)=O)NC(=O)[C@H](Cc2ccc(O)cc2)N(C)C(=O)[C@H](Cc2cccc(C(=O)O)c2)NC(=O)[C@H](CCCNC(=N)N)NC(=O)[C@H](CCC(N)=O)NC(=O)[C@H]([C@@H](C)CC)NC1=O [compound 90] ({CH2CO}-AV[NMePhe(3-Cl)]V[Trp(1-CH2COOH)]NY[3Pal(6-OMe)][Nva(3-Et)]IQR[Phe(3-COOH)][NMeY]C[PEG4]-NH2; thioether N-15) |  | 8.01 | 
CCC(CC)[C@@H]1NC(=O)[C@H](Cc2cnc3ccccn23)NC(=O)[C@H](Cc2ccc(O)cc2)NC(=O)[C@H](CC(N)=O)NC(=O)[C@H](Cc2cn(CC(=O)O)c3ccccc23)NC(=O)[C@H](C(C)C)NC(=O)[C@H](Cc2cccc(Cl)c2)N(C)C(=O)[C@H](C(C)C)NC(=O)[C@H](C)NC(=O)CSC[C@@H](C(=O)NCCOCCOCCOCCOCCC(N)=O)NC(=O)[C@H](Cc2ccc(O)cc2)N(C)C(=O)[C@H](Cc2cccc(C(=O)O)c2)NC(=O)[C@H](CCCNC(=N)N)NC(=O)[C@H](CCC(N)=O)NC(=O)[C@H]([C@@H](C)CC)NC1=O [compound 91] ({CH2CO}-AV[NMePhe(3-Cl)]V[Trp(1-CH2COOH)]NY[Ala(imidazo(1,2-a)pyr3yl)][Nva(3-Et)]IQR[Phe(3-COOH)][NMeY]C[PEG4]-NH2; thioether N-15) |  | 9.32 | 
CCC(CC)[C@@H]1NC(=O)[C@H](Cc2ccc(OCC(=O)O)cc2)NC(=O)[C@H](Cc2ccc(O)cc2)NC(=O)[C@H](CC(N)=O)NC(=O)[C@H](Cc2cn(CC(=O)O)c3ccccc23)NC(=O)[C@H](C(C)C)NC(=O)[C@H](Cc2cccc(Cl)c2)N(C)C(=O)[C@H](C(C)C)NC(=O)[C@H](C)NC(=O)CSC[C@@H](C(=O)NCCOCCOCCOCCOCCC(N)=O)NC(=O)[C@H](Cc2ccc(OC)cc2)N(C)C(=O)[C@H](Cc2cccc(C(=O)O)c2)NC(=O)[C@H](CCCNC(=N)N)NC(=O)[C@H](CCC(N)=O)NC(=O)[C@H]([C@@H](C)CC)NC1=O [compound 93] ({CH2CO}-AV[NMePhe(3-Cl)]V[Trp(1-CH2COOH)]NYY(Carboxymethyl)[Nva(3-Et)]IQR[Phe(3-COOH)][NMeY](Me)C[PEG4]-NH2; thioether N-15) |  | 7.99 | 

Second part, the compound after the results:

Kd [1] [nM] | dependency koff pH6.0/7.4 [2] | Kd [3] [nM] | Structure (SMILES)
33.5 | 9.63 | 8.57 | CC[C@H](C)[C@@H]1NC(=O)[C@H](Cc2ccc(OCC(=O)O)cc2)NC(=O)[C@H](Cc2ccc(O)cc2)NC(=O)[C@H](CC(N)=O)NC(=O)[C@H](Cc2cn(CC(=O)O)c3ccccc23)NC(=O)[C@H](C(C)C)NC(=O)[C@H](Cc2cccc(Cl)c2)N(C)C(=O)[C@H](C(C)C)NC(=O)[C@H](C)NC(=O)CSC[C@@H](C(=O)NCCOCCOCCOCCOCCC(N)=O)NC(=O)[C@H](Cc2ccc(O)cc2)N(C)C(=O)[C@H](Cc2ccncc2)NC(=O)[C@H](CCCCN2CCOCC2)NC(=O)[C@H](CCCCN2CCOCC2)NC(=O)[C@H]([C@@H](C)CC)NC1=O [compound 69] ({CH2CO}-AV[NMePhe(3-Cl)]V[Trp(1-CH2COOH)]NYY(Carboxymethyl)II[Nle(6-morpholino)][Nle(6-morpholino)][4Pal][NMeY]C[PEG4]-NH2; thioether N-15)
42.4 | 20.00 | 6.85 | CC[C@H](C)[C@@H]1NC(=O)[C@H](Cc2ccc(OCC(=O)O)cc2)NC(=O)[C@H](Cc2ccc(N)nc2)NC(=O)[C@H](CC(N)=O)NC(=O)[C@H](Cc2c[nH]c3ccccc23)NC(=O)[C@H](C(C)C)NC(=O)[C@H](Cc2cccc(Cl)c2)N(C)C(=O)[C@H](C(C)C)NC(=O)[C@H](C)NC(=O)CSC[C@@H](C(=O)NCCOCCOCCOCCOCCC(N)=O)NC(=O)[C@H](Cc2ccc(O)cc2)N(C)C(=O)[C@H](Cc2cccc(C(=O)O)c2)NC(=O)[C@H](CCCNC(=N)N)NC(=O)[C@H](CCC(=O)NCCOCCOCCOCCOC)NC(=O)[C@H]([C@@H](C)CC)NC1=O [compound 70] ({CH2CO}-AV[NMePhe(3-Cl)]VWN[3Pal(6-NH2)]Y(Carboxymethyl)IIE(NH(CH2CH2O)4Me)R[Phe(3-COOH)][NMeY]C[PEG4]-NH2; thioether N-15)
 | 5.72 | 3.34 | CC[C@H](C)[C@@H]1NC(=O)[C@H](Cc2ccc(OCC(=O)O)cc2)NC(=O)[C@H](Cc2ccc(O)cc2)NC(=O)[C@H](CC(N)=O)NC(=O)[C@H](Cc2c[nH]c3ccccc23)NC(=O)[C@H](C(C)C)NC(=O)[C@H](Cc2cccc(Cl)c2)N(C)C(=O)[C@H](C(C)C)NC(=O)[C@H](C)NC(=O)CSC[C@@H](C(=O)NCCOCCOCCOCCOCCC(N)=O)NC(=O)[C@H](Cc2ccc(O)cc2)N(C)C(=O)[C@H](Cc2cccc(C(=O)O)c2)NC(=O)[C@H](CCCNC(=N)N)NC(=O)[C@H](CCC(N)=O)NC(=O)[C@H]([C@@H](C)CC)NC1=O [compound 72] ({CH2CO}-AV[NMePhe(3-Cl)]VWNYY(Carboxymethyl)IIQR[Phe(3-COOH)][NMeY]C[PEG4]-NH2; thioether N-15)
 | 28.16 |  | CCC(CC)[C@@H]1NC(=O)[C@H](Cc2ccc(OCC(=O)O)cc2)NC(=O)[C@H](Cc2ccc(N)nc2)NC(=O)[C@H](CC(N)=O)NC(=O)[C@H](Cc2cn(CC(=O)O)c3ccccc23)NC(=O)[C@H](C(C)C)NC(=O)[C@H](Cc2cccc(Cl)c2)N(C)C(=O)[C@H](C(C)C)NC(=O)[C@H](C)NC(=O)CSC[C@@H](C(=O)NCCOCCOCCOCCOCCC(N)=O)NC(=O)[C@H](Cc2ccc(C(=O)O)cc2)N(C)C(=O)[C@H](Cc2cccc(C(=O)O)c2)NC(=O)[C@H](CCCCN2CCOCC2)NC(=O)[C@H](CCCCN2CCOCC2)NC(=O)[C@H]([C@@H](C)CC)NC1=O [compound 86] ({CH2CO}-AV[NMePhe(3-Cl)]V[Trp(1-CH2COOH)]N[3Pal(6-NH2)]Y(Carboxymethyl)[Nva(3-Et)]I[Nle(6-morpholino)][Nle(6-morpholino)][Phe(3-COOH)][NMePhe(4-COOH)]C[PEG4]-NH2; thioether N-15)
